# Measurements taken from ChEMBL document CHEMBL3091339 (J Med Chem, 2013).
# Active and inactive are the calls of the source.
# What was measured:
# Mus musculus [1] = experiment: Anticonvulsant activity in CD-1 mouse assessed as protection against maximal electroshock-induced tonic extension of hind limbs at 300 mg/kg, po after 0.5 hrs; type: functional, organism-based; design: dose 300 mg/kg; details: Hindlimb
# Mus musculus [2] = experiment: Anticonvulsant activity in CD-1 mouse assessed as protection against maximal electroshock-induced tonic extension of hind limbs at 300 mg/kg, po after 2 hrs; type: functional, organism-based; design: dose 300 mg/kg; details: Hindlimb
# Mus musculus [3] = experiment: Anticonvulsant activity in CD-1 mouse assessed as protection against maximal electroshock-induced tonic extension of hind limbs at 100 mg/kg, po after 2 hrs; type: functional, organism-based; design: dose 100 mg/kg; details: Hindlimb
# Mus musculus [4] = experiment: Anticonvulsant activity in CD-1 mouse assessed as protection against maximal electroshock-induced tonic extension of hind limbs at 100 mg/kg, po after 0.5 hrs; type: functional, organism-based; design: dose 100 mg/kg; details: Hindlimb
# Mus musculus [5] = experiment: Neurotoxicity in CF-1 mouse at 150 mg/kg, po by rotarod test; type: toxicity, organism-based; design: dose 150 mg/kg, route oral; details: in vivo
# Rattus norvegicus [6] = experiment: Anticonvulsant activity in ip dosed Sprague-Dawley rat hippocampal kindling model assessed as suppression of seizure activity treated 15 for mins post suprathreshold-stimulation; type: functional, organism-based; details: Hippocampus
# Rattus norvegicus [7] = experiment: Anticonvulsant activity in Sprague-Dawley rat hippocampal kindling model assessed as complete absence of seizure activity at >300 mg/kg, ip treated 15 for mins post suprathreshold-stimulation; type: functional, organism-based; details: Hippocampus
# Mus musculus [8] = species: Mus musculus; experiment: animal or person; details: CF-1, Hindlimb, po, 2 h
# Description: Anticonvulsant activity in po dosed CF-1 mouse assessed as protection against maximal electroshock-induced tonic extension of hind limbs measured at 2 hrs
# [9] = molecular target: Sodium channel protein type 2 subunit alpha (Rattus norvegicus) (UniProt P04775); type: cell-based; details: CHL1610
# Sequence of Sodium channel protein type 2 subunit alpha (Rattus norvegicus) (P04775 whole entry, looked up): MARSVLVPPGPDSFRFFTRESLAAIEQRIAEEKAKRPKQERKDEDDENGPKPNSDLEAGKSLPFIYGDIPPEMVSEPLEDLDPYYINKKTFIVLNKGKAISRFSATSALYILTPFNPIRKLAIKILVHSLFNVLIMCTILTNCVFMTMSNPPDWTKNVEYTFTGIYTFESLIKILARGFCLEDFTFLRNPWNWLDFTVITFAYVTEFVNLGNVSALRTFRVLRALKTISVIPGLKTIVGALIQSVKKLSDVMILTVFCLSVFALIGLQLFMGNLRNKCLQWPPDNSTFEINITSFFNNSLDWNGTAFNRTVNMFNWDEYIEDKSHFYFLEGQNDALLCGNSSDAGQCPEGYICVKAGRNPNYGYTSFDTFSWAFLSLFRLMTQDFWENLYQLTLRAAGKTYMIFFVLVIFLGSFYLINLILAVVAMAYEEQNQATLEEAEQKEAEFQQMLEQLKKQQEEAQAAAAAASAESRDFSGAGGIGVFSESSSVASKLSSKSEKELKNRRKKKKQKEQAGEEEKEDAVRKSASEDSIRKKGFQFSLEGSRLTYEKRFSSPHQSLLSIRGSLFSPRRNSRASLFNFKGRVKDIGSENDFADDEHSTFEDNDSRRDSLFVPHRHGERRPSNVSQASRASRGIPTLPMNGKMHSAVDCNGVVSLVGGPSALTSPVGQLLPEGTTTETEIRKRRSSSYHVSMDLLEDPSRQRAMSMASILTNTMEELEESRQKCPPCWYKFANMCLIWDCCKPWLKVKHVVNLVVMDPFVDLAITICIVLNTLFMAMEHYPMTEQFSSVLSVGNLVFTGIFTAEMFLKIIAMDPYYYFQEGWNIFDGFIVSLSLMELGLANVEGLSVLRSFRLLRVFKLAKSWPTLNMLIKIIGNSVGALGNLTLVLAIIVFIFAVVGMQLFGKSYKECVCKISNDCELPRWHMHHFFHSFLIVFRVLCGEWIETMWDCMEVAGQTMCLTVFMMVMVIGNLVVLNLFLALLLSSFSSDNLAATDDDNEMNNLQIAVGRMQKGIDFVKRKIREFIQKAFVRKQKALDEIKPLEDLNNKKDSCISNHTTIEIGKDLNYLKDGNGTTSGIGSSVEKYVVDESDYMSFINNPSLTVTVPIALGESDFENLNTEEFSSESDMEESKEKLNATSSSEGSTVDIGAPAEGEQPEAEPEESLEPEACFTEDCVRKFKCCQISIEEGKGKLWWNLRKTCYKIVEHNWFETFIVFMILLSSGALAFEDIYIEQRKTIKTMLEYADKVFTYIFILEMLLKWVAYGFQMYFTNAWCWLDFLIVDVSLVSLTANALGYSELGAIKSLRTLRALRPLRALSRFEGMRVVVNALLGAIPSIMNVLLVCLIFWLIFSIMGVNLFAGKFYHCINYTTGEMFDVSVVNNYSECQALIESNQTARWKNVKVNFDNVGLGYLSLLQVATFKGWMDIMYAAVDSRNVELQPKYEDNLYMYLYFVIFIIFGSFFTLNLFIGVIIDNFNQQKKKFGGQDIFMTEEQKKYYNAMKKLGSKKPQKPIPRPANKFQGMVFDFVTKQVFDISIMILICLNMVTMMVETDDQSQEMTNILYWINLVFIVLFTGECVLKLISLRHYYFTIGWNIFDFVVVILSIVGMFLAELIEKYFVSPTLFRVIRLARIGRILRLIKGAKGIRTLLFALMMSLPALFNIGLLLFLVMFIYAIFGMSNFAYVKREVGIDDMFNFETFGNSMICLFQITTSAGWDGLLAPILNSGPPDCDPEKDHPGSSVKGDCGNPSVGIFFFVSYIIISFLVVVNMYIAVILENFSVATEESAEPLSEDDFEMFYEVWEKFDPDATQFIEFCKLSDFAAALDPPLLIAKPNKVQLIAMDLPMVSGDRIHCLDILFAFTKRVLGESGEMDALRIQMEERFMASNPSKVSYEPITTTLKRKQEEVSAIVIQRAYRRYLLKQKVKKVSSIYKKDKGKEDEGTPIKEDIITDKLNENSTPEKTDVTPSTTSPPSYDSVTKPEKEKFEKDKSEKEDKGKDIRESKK
# Mus musculus [10] = experiment: Anticonvulsant activity in CD-1 mouse assessed as protection against maximal electroshock-induced tonic extension of hind limbs at 300 mg/kg, ip after 0.5 hrs; type: functional, organism-based; design: dose 300 mg/kg; details: Hindlimb
# Mus musculus [11] = experiment: Neurotoxicity in CF-1 mouse at 250 mg/kg, po by rotarod test; type: toxicity, organism-based; design: dose 250 mg/kg, route oral; details: in vivo
# Homo sapiens [12] = species: Homo sapiens; experiment: Binding affinity to GABA (unknown origin) at 10 uM
# [13] = Cmax in rat at 10 mg/kg, po; type: ADME, organism-based; design: dose 10 mg/kg, route oral; details: in vivo
# [14] = molecular target: T1, Voltage-dependent N-type calcium channel subunit alpha-1B (Rattus norvegicus, UniProt Q02294)
# T1 sequence (Q02294 whole entry): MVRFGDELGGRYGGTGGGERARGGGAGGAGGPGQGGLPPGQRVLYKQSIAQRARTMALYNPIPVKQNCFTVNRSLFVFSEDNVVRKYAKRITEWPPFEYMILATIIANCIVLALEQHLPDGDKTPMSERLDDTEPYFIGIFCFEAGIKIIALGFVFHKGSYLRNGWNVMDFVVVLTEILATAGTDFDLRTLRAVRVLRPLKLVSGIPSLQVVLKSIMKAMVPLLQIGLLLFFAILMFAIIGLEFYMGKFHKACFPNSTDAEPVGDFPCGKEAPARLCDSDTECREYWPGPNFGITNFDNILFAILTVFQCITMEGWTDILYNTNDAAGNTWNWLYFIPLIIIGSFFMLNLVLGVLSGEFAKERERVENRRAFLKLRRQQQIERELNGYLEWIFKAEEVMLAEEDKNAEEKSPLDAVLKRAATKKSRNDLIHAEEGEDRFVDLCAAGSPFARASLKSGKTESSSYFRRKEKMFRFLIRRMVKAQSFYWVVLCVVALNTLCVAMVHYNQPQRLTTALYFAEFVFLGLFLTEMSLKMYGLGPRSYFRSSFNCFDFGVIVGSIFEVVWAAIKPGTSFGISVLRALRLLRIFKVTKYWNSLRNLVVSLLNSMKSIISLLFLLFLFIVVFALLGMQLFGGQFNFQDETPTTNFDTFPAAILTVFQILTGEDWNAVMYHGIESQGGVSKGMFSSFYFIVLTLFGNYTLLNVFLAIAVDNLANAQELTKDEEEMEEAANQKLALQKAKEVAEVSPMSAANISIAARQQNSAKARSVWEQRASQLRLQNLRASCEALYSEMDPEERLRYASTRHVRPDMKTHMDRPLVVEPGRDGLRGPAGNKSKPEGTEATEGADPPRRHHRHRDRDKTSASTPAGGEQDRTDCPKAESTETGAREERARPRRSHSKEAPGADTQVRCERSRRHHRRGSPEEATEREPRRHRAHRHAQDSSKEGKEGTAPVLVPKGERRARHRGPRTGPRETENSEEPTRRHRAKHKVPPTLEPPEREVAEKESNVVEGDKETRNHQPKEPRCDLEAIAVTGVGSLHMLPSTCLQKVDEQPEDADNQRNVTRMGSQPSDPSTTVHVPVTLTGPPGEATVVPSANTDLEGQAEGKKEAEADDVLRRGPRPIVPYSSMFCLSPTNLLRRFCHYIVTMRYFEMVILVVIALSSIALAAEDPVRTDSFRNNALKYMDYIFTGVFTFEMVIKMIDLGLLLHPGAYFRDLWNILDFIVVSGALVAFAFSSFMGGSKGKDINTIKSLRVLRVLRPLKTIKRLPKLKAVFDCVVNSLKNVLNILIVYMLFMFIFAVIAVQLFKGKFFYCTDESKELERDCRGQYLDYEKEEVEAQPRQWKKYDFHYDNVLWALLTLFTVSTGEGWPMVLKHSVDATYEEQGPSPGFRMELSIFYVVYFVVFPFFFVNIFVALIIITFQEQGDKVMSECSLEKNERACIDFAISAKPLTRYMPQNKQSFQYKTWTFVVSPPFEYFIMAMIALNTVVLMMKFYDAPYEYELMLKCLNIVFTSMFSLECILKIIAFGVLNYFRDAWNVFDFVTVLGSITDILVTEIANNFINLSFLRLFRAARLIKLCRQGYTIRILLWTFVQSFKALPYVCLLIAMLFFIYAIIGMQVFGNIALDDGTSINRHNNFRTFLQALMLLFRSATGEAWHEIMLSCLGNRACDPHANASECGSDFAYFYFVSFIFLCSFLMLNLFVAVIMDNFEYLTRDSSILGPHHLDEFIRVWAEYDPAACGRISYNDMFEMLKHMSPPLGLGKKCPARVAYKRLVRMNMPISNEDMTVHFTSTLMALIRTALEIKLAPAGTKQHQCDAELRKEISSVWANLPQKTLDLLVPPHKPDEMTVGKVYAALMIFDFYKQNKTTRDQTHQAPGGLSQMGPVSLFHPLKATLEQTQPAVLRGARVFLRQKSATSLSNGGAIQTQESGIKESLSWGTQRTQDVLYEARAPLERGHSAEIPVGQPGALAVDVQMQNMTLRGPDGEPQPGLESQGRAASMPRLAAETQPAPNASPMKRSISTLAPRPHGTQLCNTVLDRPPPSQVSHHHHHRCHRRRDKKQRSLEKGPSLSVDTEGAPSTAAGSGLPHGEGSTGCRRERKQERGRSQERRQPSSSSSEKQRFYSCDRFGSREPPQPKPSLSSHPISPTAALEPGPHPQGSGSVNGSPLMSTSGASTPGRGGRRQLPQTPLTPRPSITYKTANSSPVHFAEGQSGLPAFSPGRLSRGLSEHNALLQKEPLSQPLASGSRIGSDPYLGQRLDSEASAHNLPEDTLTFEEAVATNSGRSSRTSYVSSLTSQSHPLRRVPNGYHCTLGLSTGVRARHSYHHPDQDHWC
# Description: Inhibition of rat Cav2.2-mediated calcium flux expressed in HEK cells at 0.07 Hz by whole-cell patch-clamp assay
# Rattus norvegicus [15] = experiment: Oral bioavailability in rat at 10 mg/kg; type: ADME, organism-based; details: in vivo
# Carbonic anhydrase 1 = Carbonic anhydrase 1 (Homo sapiens, UniProt P00915); experiment: Inhibition of carbonic anhydrase 1 (unknown origin)
# Sequence of Carbonic anhydrase 1 (P00915 whole entry): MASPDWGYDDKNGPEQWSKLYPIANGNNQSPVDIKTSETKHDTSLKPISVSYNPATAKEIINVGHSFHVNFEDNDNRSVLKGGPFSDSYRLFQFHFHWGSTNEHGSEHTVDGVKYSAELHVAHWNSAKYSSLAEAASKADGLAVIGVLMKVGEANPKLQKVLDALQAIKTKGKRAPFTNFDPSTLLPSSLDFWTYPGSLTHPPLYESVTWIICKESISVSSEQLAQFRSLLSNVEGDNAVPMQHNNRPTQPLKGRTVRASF
# [16] = molecular target: Voltage-dependent N-type calcium channel subunit alpha-1B (Rattus norvegicus) (UniProt Q02294); experiment: Inhibition of rat Cav2.2-mediated calcium flux expressed in HEK cells at 100 uM at 0.07 Hz by whole-cell patch-clamp assay relative to control; type: cell-based; details: HEK293
# Sequence of Voltage-dependent N-type calcium channel subunit alpha-1B (Rattus norvegicus) (Q02294 whole entry, looked up): as the sequence (Q02294 whole entry) above
# Liver microsome = experiment: Drug metabolism in human liver microsomes assessed as hydroxylation metabolite formation by LC-MS/MS analysis; type: ADME
# [17] = Volume of distribution at steady state in beagle dog at 2 mg/kg, iv; type: ADME, organism-based, Canis lupus familiaris; design: dose 2 mg/kg, route intravenous; details: in vivo, read-out: Vdss
# [18] = molecular target: Histamine H1 receptor (Homo sapiens) (UniProt P35367); experiment: Inhibition of histamine H1 receptor (unknown origin) at 10 uM relative to control
# Sequence of Histamine H1 receptor (Homo sapiens) (P35367 whole entry): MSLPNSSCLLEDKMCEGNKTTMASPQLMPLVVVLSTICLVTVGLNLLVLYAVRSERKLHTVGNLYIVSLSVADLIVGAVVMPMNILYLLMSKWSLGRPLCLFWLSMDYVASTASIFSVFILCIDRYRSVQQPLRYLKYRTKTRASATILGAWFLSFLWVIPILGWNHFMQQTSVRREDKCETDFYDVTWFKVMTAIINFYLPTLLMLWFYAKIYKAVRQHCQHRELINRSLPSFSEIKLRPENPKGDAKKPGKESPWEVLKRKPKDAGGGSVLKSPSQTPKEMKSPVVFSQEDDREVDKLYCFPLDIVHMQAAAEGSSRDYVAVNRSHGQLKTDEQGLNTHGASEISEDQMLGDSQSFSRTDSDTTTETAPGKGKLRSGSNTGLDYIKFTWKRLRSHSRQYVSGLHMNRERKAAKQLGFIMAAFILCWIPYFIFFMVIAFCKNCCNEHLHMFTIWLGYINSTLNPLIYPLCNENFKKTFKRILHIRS
# [19] = Clearance in beagle dog at 2 mg/kg, iv; type: ADME, organism-based, Canis lupus familiaris; design: dose 2 mg/kg, route intravenous; details: in vivo
# Rattus norvegicus [20] = experiment: Anticonvulsant activity in ip dosed Sprague-Dawley rat hippocampal kindling model assessed as effect on after discharge duration treated 15 for mins post suprathreshold-stimulation; type: functional, organism-based; details: Hippocampus
# [21] = Neurotoxicity in rat by positional sense test; type: toxicity, organism-based; details: in vivo
# [22] = molecular target: Sodium-dependent dopamine transporter (Homo sapiens) (UniProt Q01959); experiment: Binding affinity to dopamine transporter (unknown origin)
# [23] = molecular target: T2, 5-hydroxytryptamine receptor 2C (Homo sapiens) (UniProt P28335); experiment: Binding affinity to 5HT2C receptor (unknown origin)
# T2 sequence (whole entry): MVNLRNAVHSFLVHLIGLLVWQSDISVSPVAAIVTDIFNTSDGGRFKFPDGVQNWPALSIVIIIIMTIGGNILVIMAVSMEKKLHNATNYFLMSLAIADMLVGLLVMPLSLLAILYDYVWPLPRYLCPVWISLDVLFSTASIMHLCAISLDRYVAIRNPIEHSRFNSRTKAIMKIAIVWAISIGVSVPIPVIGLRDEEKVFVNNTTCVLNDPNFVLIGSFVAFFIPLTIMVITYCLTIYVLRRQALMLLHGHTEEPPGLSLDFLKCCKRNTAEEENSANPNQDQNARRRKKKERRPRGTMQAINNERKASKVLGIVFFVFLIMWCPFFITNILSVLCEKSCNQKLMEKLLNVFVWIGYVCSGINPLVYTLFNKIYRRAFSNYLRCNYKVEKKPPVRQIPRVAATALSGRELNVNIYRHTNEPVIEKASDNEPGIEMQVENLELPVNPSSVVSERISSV
# in vivo [24] = details: rat, po, 10 mg/kg
# Canis familiaris = experiment: Oral bioavailability in beagle dog at 10 mg/kg; type: ADME, organism-based, Canis lupus familiaris; details: in vivo
# [25] = AUC in beagle dog at 10 mg/kg, po; type: ADME, organism-based, Canis lupus familiaris; design: dose 10 mg/kg, route oral; details: plasma
# Rattus norvegicus [26] = experiment: Anticonvulsant activity in ip dosed Sprague-Dawley rat hippocampal kindling model assessed as reduction in global seizures treated 15 for mins post suprathreshold-stimulation; type: functional, organism-based; details: Hippocampus
# Mus musculus [27] = experiment: Anticonvulsant activity in intravenous PTZ-induced CF-1 mouse assessed as increase in seizure threshold for clonus at […], ip treated for 15 mins prior to PTZ-challenge relative to control; type: functional
# [28] = Clearance in rat at 2 mg/kg, iv; type: ADME, organism-based; design: dose 2 mg/kg, route intravenous; details: in vivo
# [29] = molecular target: Voltage-dependent N-type calcium channel subunit alpha-1B (Rattus norvegicus) (UniProt Q02294); experiment: Inhibition of rat Cav2.2-mediated calcium flux expressed in HEK cells at 100 uM at 5 Hz by whole-cell patch-clamp assay relative to control; type: cell-based; details: HEK293
# Homo sapiens [30] = species: Homo sapiens; experiment: Binding affinity to chloride channel (unknown origin) at 10 uM
# Homo sapiens [31] = species: Homo sapiens; experiment: Binding affinity to central-type benzodiazepine receptor (unknown origin) at 10 uM
# [32] = molecular target: T1, Voltage-dependent N-type calcium channel subunit alpha-1B; remark: listed apart in the source
# Description: Inhibition of rat Cav2.2-mediated calcium flux expressed in HEK cells by FDSS assay
# [33] = Volume of distribution at steady state in rat at 2 mg/kg, iv; type: ADME, organism-based; design: dose 2 mg/kg, route intravenous; details: in vivo, read-out: Vdss
# [34] = Half life in beagle dog at 10 mg/kg, po; type: ADME, organism-based, Canis lupus familiaris; design: dose 10 mg/kg, route oral; details: in vivo
# [35] = molecular target: Sodium channel protein type 2 subunit alpha (Rattus norvegicus) (UniProt P04775); details: CHL1610
# [36] = Cmax in beagle dog at 10 mg/kg, po; type: ADME, organism-based, Canis lupus familiaris; design: dose 10 mg/kg, route oral; details: in vivo
# Mus musculus [37] = experiment: Anticonvulsant activity in intravenous PTZ-induced CF-1 mouse assessed as increase in seizure threshold for twitch at […], ip treated for 15 mins prior to PTZ-challenge relative to control; type: functional
# [38] = molecular target: Sodium channel protein type 2 subunit alpha (Rattus norvegicus, UniProt P04775); experiment: Inhibition of rat Nav1.2 expressed in CHL1610 cells at -67 mV after 2 to 3 mins by whole-cell patch-clamp assay; type: cell-based
# in vivo [39] = details: beagle, dog, po, 10 mg/kg
# [40] = Neurotoxicity in rat by muscle tone test; type: toxicity, organism-based, Muscle tissue; details: in vivo
# [41] = Half life in rat at 10 mg/kg, po; type: ADME, organism-based; design: dose 10 mg/kg, route oral; details: in vivo
# [42] = molecular target: Sodium channel protein type 2 subunit alpha (Rattus norvegicus) (UniProt P04775); type: cell-based; details: CHL1610; remark: listed apart in the source
smiles,measurement,setting,value
Cc1ccc2c(c1)O[C@@H](CNS(N)(=O)=O)CO2,Activity,Mus musculus [1],inactive
same,Activity,Mus musculus [2],inactive
NS(=O)(=O)NCC1Oc2ccc(Cl)cc2O1 (stereo not drawn),Activity,Mus musculus [3],inactive
same,Activity,Mus musculus [4],inactive
NS(=O)(=O)NC[C@H]1COc2cccc(Cl)c2O1,Activity,Mus musculus [3],inactive
NS(=O)(=O)NC[C@H]1COc2ccc(Cl)cc2O1,Activity,Mus musculus [5],Non-toxic
same,Activity,Mus musculus [4],inactive
NS(=O)(=O)NCC1CCc2ccccc2O1 (stereo not drawn),Activity,Mus musculus [1],Active
same,Activity,Mus musculus [3],inactive
CCCC(CCC)C(=O)O,Activity,Rattus norvegicus [6],Active
same,Activity,Rattus norvegicus [7],Active
O=C1NC(=O)C(c2ccccc2)(c2ccccc2)N1 [PHENYTOIN],Activity,Rattus norvegicus [6],Active
same,ED50,Mus musculus [8],9 mg/kg
NS(=O)(=O)NC[C@H]1COc2cc(Cl)c(Cl)cc2O1,Activity,Mus musculus [4],inactive
NS(=O)(=O)NC[C@H]1COc2cc(F)ccc2O1,Activity,Mus musculus [2],Active
NCC1(CC(=O)O)CCCCC1,Activity,[9],inactive
NS(=O)(=O)NCC1Oc2ccccc2O1,Activity,Mus musculus [10],Active
same,Activity,Mus musculus [3],inactive
same,Activity,Mus musculus [4],Active
NS(=O)(=O)NC[C@H]1COc2ccccc2O1,Activity,Mus musculus [11],Non-toxic
same,Activity,Mus musculus [10],Active
NS(=O)(=O)NC[C@H]1COc2cc(Cl)ccc2O1 [JNJ-26489112],inhibition,Homo sapiens [12],inactive
same,Cmax,[13],9090 ng/mL
same,IC50,[14],70 µM
same,F,Rattus norvegicus [15],95%
same,IC50,Carbonic anhydrase 1,18 µM
same,Ki,Carbonic anhydrase 1,2.2 µM
same,inhibition,[16],37%
same,Drug metabolism,Liver microsome,Active
same,Vd,[17],0.63 L/kg
same,inhibition,[18],23%
same,clearance,[19],0.5 mL/min/kg
same,Activity,Rattus norvegicus [20],inactive
same,NOAEL,[21],500 mg/kg
same,INH,[22],16 µM
same,INH,[23],29 µM
same,Tmax,in vivo [24],0.883 h
same,F,Canis familiaris,83%
same,AUC,[25],212 µg·h/mL
same,Activity,Rattus norvegicus [26],Active
same,Activity,Mus musculus [27],232%
same,clearance,[28],1.6 mL/min/kg
same,inhibition,[29],53%
same,inhibition,Homo sapiens [30],inactive
same,inhibition,Homo sapiens [31],inactive
same,IC50,[32],34 µM
same,Vd,[33],0.39 L/kg
same,half-life,[34],20 h
same,inhibition,[35],Dose-dependent effect
same,Cmax,[36],11500 ng/mL
same,Activity,Mus musculus [2],Active
same,Activity,Mus musculus [37],80%
same,IC50,[38],36 µM
same,Tmax,in vivo [39],0.917 h
same,NOAEL,[40],500 mg/kg
same,half-life,[41],8.2 h
same,Activity,Mus musculus [4],inactive
same,inhibition,[42],inactive
